Measured values reported in patent US4304778A, “4-Aminoquinazoline derivatives having fungicidal, anti-insect and acaricidal properties” (Sankyo Company Limited, priority 1978, dated 1981).

What was measured:
[1] = test system: final instar larvae of the diamondback moth (Plutella xylostella); test: Repellent and emergence-inhibition effect on the final instar larvae of diamondback moths; format: in vivo; set-up: key to Extent of ingestion: -: no ingestion; ±: very little ingestion; +: some ingestion; ++: considerable ingestion; conditions: 72 hours; for pest or weed control at 500 ppm: Plutella xylostella, read-out: Emergence-inhibition rate (%); for Extent of ingestion: radish leaves dipped in 500 ppm
Description: (§1) In the following Examples, wettable powders prepared according to the procedures of Example 4 were used, each powder containing 50% by weight of the active compound of this invention.
Leaves of the Japanese radish (Raphanus sativus) were dipped for 30 seconds into a liquid containing 500 ppm of one of the compounds shown in Table 9. After air-drying the leaves, each leaf was placed into a plastic icecream cup (diameter 8 cm) and 15 final instar larvae of the diamondback moth (Plutella xylostella) were placed into each cup. Each test was conducted in duplicate and the results were averaged.

[2] = test system: cotton aphid (Aphis gossyppi); test: Effect on the cotton aphid on cucumbers; format: in vivo; conditions: 600 ppm; 5 sprayings Sept. 25 to Oct. 30; examined Nov. 9; untreated control 8.7
Description: as §1
Cucumbers (variety "Tokiwa Hikari No. 3, Type P") were transplanted into a plastic greenhouse on September 12. Using a shoulder sprayer, a liquid containing 600 ppm of one of the compounds shown in Table 11 was sprayed on the surface and reverse side of the leaves on Sept. 25, Oct. 9, 16, 23 and 30. On Nov. 9, the effect on the cotton aphid (Aphis gossyppi) was investigated, sampling 25-30 leaves at random from each test area and calculating the number of colonies on each leaf; there were generally 50-100 aphids per colony. The results are shown as the number of colonies per leaf in Table 11, which also gives the results for a test area where no compound of the invention was applied.

[3] = test system: third instar larvae of the tobacco cutworm; test: Repellent action against the third instar larvae of the tobacco cutworm; format: in vivo; set-up: key: -: no ingestion; ±: very little ingestion; +: some ingestion; ++: considerable ingestion; conditions: cabbage leaves dipped in 500 ppm, 72 hours
Description: as §1
Cabbage leaves were dipped for 30 seconds in an aqueous suspension containing 500 ppm of one of the active compounds shown in Table 6. After air-drying, each leaf was placed into a plastic receptacle having a diameter of 8 cm and the third instar larvae (10 per receptacle) of the tobacco cutworm were released onto the leaves. After 72 hours, the extent of ingestion of the leaves was measured, using two receptacles for each test compound. The results are shown in Table 6, using the following notation (which is also employed, with the same meaning, in following Table 9): […]

[4] = test system: Colletotrichum lagenarium; test: Effect on anthracnose in cucumbers; format: in vivo; conditions: cucumber anthracnose; 500 ppm; seven days; cotyledon and first leaf
Method: as §1
Groups of cucumber plants (variety Sagamihanshiro) were planted, two per pot, in a series of Wagner pots (diameter 12 cm) and were used as host plants when the first leaf was fully grown and open. Each test group of three pots was treated with one of the active compounds shown in Table 4 by spraying an aqueous suspension containing 500 ppm of the active compound onto the plants at the rate of 30 ml per 3 pots. After air-drying the plants, a spore suspension of the pathogenic microorganism Colletotrichum lagenarium was sprayed onto the plants and the plants were kept in a wet room for 24 hours at 20°-22° C. and 100% relative humidity. The pots were then placed in a greenhouse at 26° C. and, seven days after the spore suspension had been sprayed on, the percentage diseased area of the cotyledon and the first leaf was calculated.

Phytophthora infestans = format: in vivo; conditions: tomato late blight; 500 ppm; after 5 days; average per leaf
Sphaerotheca fuliginea = test: Effect on powdery mildew in cucumbers; format: in vivo; conditions: cucumber powdery mildew; 500 ppm; 10 days
Method: as §1
Cucumber seedlings (variety Sagamihanshiro), planted two per 12 cm diameter pot, were used as host plants at the stage when the first leaf was fully grown and open. Each test group of three pots was treated with one of the active compounds shown in Table 5 by spraying an aqueous suspension containing 500 ppm of the active compound onto the plants at the rate of 20 ml per 3 pots. After air-drying the plants, the host plants were inoculated with the microorganism Sphaerotheca fuliginea by brushing already infected cucumber leaves with a small brush and letting the microorganism fall onto the host plants. The inoculated plants were kept in a greenhouse at 24°-26° C. for 10 days. At the end of this time, the percentage diseased area was measured.

cockroach larvae = conditions: 24 hours; 25° C.
guppies = test: Toxicity to guppies; format: in vivo; conditions: LC50 after 48 hours classified
Method: In this example the toxicity of the compounds of the invention towards guppies was estimated and is compared with that of corresponding compounds as disclosed and claimed in our co-pending U.S. Application No. 910,117 filed May 30, 1978. The LC50 was determined after 48 hours and the toxicity to guppies was classified into the rankings (i), (ii) and (iii) according to the following classification scheme: […]

Piricularia oryzae = format: in vivo; conditions: rice blast; 500 ppm spray; mean, upper two leaves

In the case of `Cc1ccc(C(C)C)cc1OCCN(C)c1ncnc2ccccc12` [Compound No. 21, 4-{N-[2-(5-isopropyl-2-methylphenoxy)ethyl]-N-methylamino}quinazoline], the pest or weed control at 500 ppm [1] is reported as 90%, the Extent of ingestion [1] is reported as “±” and the “No. of colonies per leaf” value [2] is reported as 1.0 colonies per leaf. The Extent of ingestion [3] was “+”, the “Diseased area (%)” value [4] was 0% and the “Diseased area (%)” value (Phytophthora infestans) was 12%. For the same compound, the “Diseased area (%)” value (Sphaerotheca fuliginea) was 0%, the “Mortality rate (%), 0.5mg test cpd/10 cockroaches/bottle” value (cockroach larvae) was 90% and the “Mortality rate (%), 1mg test cpd/10 cockroaches/bottle” value (cockroach larvae) was 100%.

In the case of `CC(C)c1ccccc1OCCN(C)c1ncnc2ccccc12` [compound 15, 4-{N-[2-(2-isopropylphenoxy)ethyl]-N-methylamino}quinazoline], the pest or weed control at 500 ppm [1] is reported as 60%, the Extent of ingestion [1] is reported as “±” and the Extent of ingestion [3] is reported as “± to +”. For the same compound, the Toxicity ranking (guppies) was “ii (all fish dead at 10 ppm but alive at 0.5 ppm)”, the “No. of disease spots per leaf” value (Piricularia oryzae) was 3.0 spots per leaf and the “Diseased area (%)” value (Phytophthora infestans) was 0%. For the same compound, the “Diseased area (%)” value (Sphaerotheca fuliginea) was 0%, the “Mortality rate (%), 0.5mg test cpd/10 cockroaches/bottle” value (cockroach larvae) was 80% and the “Mortality rate (%), 1mg test cpd/10 cockroaches/bottle” value (cockroach larvae) was 100%.

With `Cc1ccc(OCCN(C)c2ncnc3ccccc23)c(C)c1` [compound 17, 4-{N-[2-(2,4-dimethylphenoxy)ethyl]-N-methylamino}-quinazoline] the pest or weed control at 500 ppm [1] was 50%, the Extent of ingestion [1] was “± to +” and the Extent of ingestion [3] was “+”. The Toxicity ranking (guppies) was “ii (all fish dead at 10 ppm but alive at 0.5 ppm)”, the “No. of disease spots per leaf” value (Piricularia oryzae) was 2.4 spots per leaf and the “Diseased area (%)” value (Phytophthora infestans) was 9%. The “Diseased area (%)” value (Sphaerotheca fuliginea) was 0%, the “Mortality rate (%), 0.5mg test cpd/10 cockroaches/bottle” value (cockroach larvae) was 90% and the “Mortality rate (%), 1mg test cpd/10 cockroaches/bottle” value (cockroach larvae) was 100%.

With `Cc1cc(Cl)ccc1OCCN(C)c1ncnc2ccccc12` [compound 22, 4-{N-[2-(4-chloro-2-methylphenoxy)ethyl]-N-methylamino}quinazoline] the pest or weed control at 500 ppm [1] was 80%, the Extent of ingestion [1] was “±” and the “No. of colonies per leaf” value [2] was 1.1 colonies per leaf. The Extent of ingestion [3] was “± to +”, the “Diseased area (%)” value [4] was 0% and the “Diseased area (%)” value (Phytophthora infestans) was 15%. The “Diseased area (%)” value (Sphaerotheca fuliginea) was 0%, the “Mortality rate (%), 0.5mg test cpd/10 cockroaches/bottle” value (cockroach larvae) was 80% and the “Mortality rate (%), 1mg test cpd/10 cockroaches/bottle” value (cockroach larvae) was 100%.

`CCCCCCCCc1ccc(OCCN(C)c2ncnc3ccccc23)c(C)c1` [compound 58, 4-{N-methyl-N-[2-(2-methyl-4-octylphenoxy)ethyl]amino}quinazoline] was tested, and the pest or weed control at 500 ppm [1] was 85%, the Extent of ingestion [1] was “±” and the “No. of colonies per leaf” value [2] was 0.5 colonies per leaf. For the same compound, the Extent of ingestion [3] was “± to +”, the “Diseased area (%)” value (Phytophthora infestans) was 10% and the “Mortality rate (%), 0.5mg test cpd/10 cockroaches/bottle” value (cockroach larvae) was 90%. The “Mortality rate (%), 1mg test cpd/10 cockroaches/bottle” value (cockroach larvae) was 100%.
